Laboratory results from PubChem BioAssay (NCI).
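GI50 marks 50% less growth. TGI marks complete inhibition of growth.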

Tests used:
Experiment in all cases: NCI anticancer screen, dose series, 384-well format
OVCAR-3 ovarian = tested on: OVCAR-3 ovarian
SF-539 CNS = tested on: SF-539 CNS
COLO 205 colon = tested on: COLO 205 colon
BT-549 breast = tested on: BT-549 breast
SR leukemia = tested on: SR leukemia
MALME-3M melanoma = tested on: MALME-3M melanoma
OVCAR-5 ovarian = tested on: OVCAR-5 ovarian
SK-MEL-5 melanoma = tested on: SK-MEL-5 melanoma
K-562 leukemia = tested on: K-562 leukemia
PC-3 prostate = tested on: PC-3 prostate
NCI-H23 lung = tested on: NCI-H23 lung
SK-MEL-28 melanoma = tested on: SK-MEL-28 melanoma
M14 melanoma = tested on: M14 melanoma
OVCAR-4 ovarian = tested on: OVCAR-4 ovarian
SN12C renal = tested on: SN12C renal
ACHN renal = tested on: ACHN renal
UACC-62 melanoma = tested on: UACC-62 melanoma
TK-10 renal = tested on: TK-10 renal
MDA-MB-435 melanoma = tested on: MDA-MB-435 melanoma
A498 renal = tested on: A498 renal
SF-268 CNS = tested on: SF-268 CNS
HOP-92 NSCLC = tested on: HOP-92 NSCLC
SNB-75 CNS = tested on: SNB-75 CNS
SW-620 colon = tested on: SW-620 colon
EKVX NSCLC = tested on: EKVX NSCLC
NCI-H460 NSCLC = tested on: NCI-H460 NSCLC
CAKI-1 renal = tested on: CAKI-1 renal
MCF7 breast = tested on: MCF7 breast
NCI-H322M lung = tested on: NCI-H322M lung
UO-31 renal = tested on: UO-31 renal
T-47D breast = tested on: T-47D breast
MDA-MB-231 breast = tested on: MDA-MB-231 breast
OVCAR-8 ovarian = tested on: OVCAR-8 ovarian
MDA-MB-468 breast = tested on: MDA-MB-468 breast
HOP-62 NSCLC = tested on: HOP-62 NSCLC
LOX IMVI melanoma = tested on: LOX IMVI melanoma
HL-60(TB) leukemia = tested on: HL-60(TB) leukemia
SF-295 CNS = tested on: SF-295 CNS
KM12 colon = tested on: KM12 colon
CCRF-CEM leukemia = tested on: CCRF-CEM leukemia
NCI-H522 lung = tested on: NCI-H522 lung
NCI/ADR-RES ovarian = tested on: NCI/ADR-RES ovarian
SNB-19 CNS = tested on: SNB-19 CNS
SK-OV-3 ovarian = tested on: SK-OV-3 ovarian
MOLT-4 leukemia = tested on: MOLT-4 leukemia
RPMI-8226 leukemia = tested on: RPMI-8226 leukemia
NCI-H226 lung = tested on: NCI-H226 lung
UACC-257 melanoma = tested on: UACC-257 melanoma
HCC-2998 colon = tested on: HCC-2998 colon
RXF 393 renal = tested on: RXF 393 renal
786-0 renal = tested on: 786-0 renal
IGROV1 ovarian = tested on: IGROV1 ovarian
HS 578T breast = tested on: HS 578T breast
HCT-15 colon = tested on: HCT-15 colon
HT29 colon = tested on: HT29 colon
A549 NSCLC = tested on: A549 NSCLC
DU-145 prostate = tested on: DU-145 prostate

CCOCCOC[C@H]1CCCN(c2ccnc3sc(C(N)=O)c(N)c23)C1
GI50 (OVCAR-3 ovarian): 23.8 µM | TGI (OVCAR-3 ovarian): > 100 µM | GI50 (SF-539 CNS): > 100 µM | TGI (SF-539 CNS): > 100 µM | GI50 (COLO 205 colon): 61.6 µM | TGI (COLO 205 colon): > 100 µM | GI50 (BT-549 breast): 79.1 µM | TGI (BT-549 breast): > 100 µM | GI50 (SR leukemia): 1.07 µM | TGI (SR leukemia): 3.5 µM | GI50 (MALME-3M melanoma): > 100 µM | TGI (MALME-3M melanoma): > 100 µM | GI50 (OVCAR-5 ovarian): > 100 µM | TGI (OVCAR-5 ovarian): > 100 µM | GI50 (SK-MEL-5 melanoma): 2.56 µM | TGI (SK-MEL-5 melanoma): 18.1 µM | GI50 (K-562 leukemia): 4.6 µM | TGI (K-562 leukemia): > 100 µM | GI50 (PC-3 prostate): 55.1 µM | TGI (PC-3 prostate): > 100 µM | GI50 (NCI-H23 lung): 7.19 µM | TGI (NCI-H23 lung): > 100 µM | GI50 (SK-MEL-28 melanoma): > 100 µM | TGI (SK-MEL-28 melanoma): > 100 µM | GI50 (M14 melanoma): > 100 µM | TGI (M14 melanoma): > 100 µM | GI50 (OVCAR-4 ovarian): 34.1 µM | TGI (OVCAR-4 ovarian): > 100 µM | GI50 (SN12C renal): > 100 µM | TGI (SN12C renal): > 100 µM | GI50 (ACHN renal): 44.9 µM | TGI (ACHN renal): > 100 µM | GI50 (UACC-62 melanoma): 35.6 µM | TGI (UACC-62 melanoma): > 100 µM | GI50 (TK-10 renal): > 100 µM | TGI (TK-10 renal): > 100 µM | GI50 (MDA-MB-435 melanoma): > 100 µM | TGI (MDA-MB-435 melanoma): > 100 µM | GI50 (A498 renal): 13.9 µM | TGI (A498 renal): > 100 µM | GI50 (SF-268 CNS): > 100 µM | TGI (SF-268 CNS): > 100 µM | GI50 (HOP-92 NSCLC): > 100 µM | TGI (HOP-92 NSCLC): > 100 µM | GI50 (SNB-75 CNS): > 100 µM | TGI (SNB-75 CNS): > 100 µM | GI50 (SW-620 colon): > 100 µM | TGI (SW-620 colon): > 100 µM | GI50 (EKVX NSCLC): 35.1 µM | TGI (EKVX NSCLC): > 100 µM | GI50 (NCI-H460 NSCLC): 11.4 µM | TGI (NCI-H460 NSCLC): > 100 µM | GI50 (CAKI-1 renal): > 100 µM | TGI (CAKI-1 renal): > 100 µM | GI50 (MCF7 breast): 23 µM | TGI (MCF7 breast): > 100 µM | GI50 (NCI-H322M lung): 13.4 µM | TGI (NCI-H322M lung): > 100 µM | GI50 (UO-31 renal): > 100 µM | TGI (UO-31 renal): > 100 µM | GI50 (T-47D breast): 2.23 µM | TGI (T-47D breast): 67.4 µM | GI50 (MDA-MB-231 breast): 82.3 µM | TGI (MDA-MB-231 breast): > 100 µM | GI50 (OVCAR-8 ovarian): 15.2 µM | TGI (OVCAR-8 ovarian): > 100 µM | GI50 (MDA-MB-468 breast): 1.34 µM | TGI (MDA-MB-468 breast): 7.04 µM | GI50 (HOP-62 NSCLC): 18.5 µM | TGI (HOP-62 NSCLC): > 100 µM | GI50 (LOX IMVI melanoma): 16.9 µM | TGI (LOX IMVI melanoma): > 100 µM | GI50 (HL-60(TB) leukemia): 13.5 µM | TGI (HL-60(TB) leukemia): 63.8 µM | GI50 (SF-295 CNS): 59.3 µM | TGI (SF-295 CNS): > 100 µM | GI50 (KM12 colon): 46.7 µM | TGI (KM12 colon): > 100 µM | GI50 (CCRF-CEM leukemia): 1.43 µM | TGI (CCRF-CEM leukemia): 11.2 µM | GI50 (NCI-H522 lung): 5.77 µM | TGI (NCI-H522 lung): > 100 µM | GI50 (NCI/ADR-RES ovarian): 3.53 µM | TGI (NCI/ADR-RES ovarian): 27.6 µM | GI50 (SNB-19 CNS): > 100 µM | TGI (SNB-19 CNS): > 100 µM | GI50 (SK-OV-3 ovarian): 17.6 µM | TGI (SK-OV-3 ovarian): > 100 µM | GI50 (MOLT-4 leukemia): 3.13 µM | TGI (MOLT-4 leukemia): 23.1 µM | GI50 (RPMI-8226 leukemia): 0.499 µM | TGI (RPMI-8226 leukemia): 14.4 µM | GI50 (NCI-H226 lung): 90.9 µM | TGI (NCI-H226 lung): > 100 µM | GI50 (UACC-257 melanoma): 61.1 µM | TGI (UACC-257 melanoma): > 100 µM | GI50 (HCC-2998 colon): > 100 µM | TGI (HCC-2998 colon): > 100 µM | GI50 (RXF 393 renal): 12.9 µM | TGI (RXF 393 renal): > 100 µM | GI50 ([…]-0 renal): 43.9 µM | TGI (786-0 renal): > 100 µM | GI50 (IGROV1 ovarian): 29.6 µM | TGI (IGROV1 ovarian): > 100 µM | GI50 (HS 578T breast): > 100 µM | TGI (HS 578T breast): > 100 µM | GI50 (HCT-15 colon): > 100 µM | TGI (HCT-15 colon): > 100 µM | GI50 (HT29 colon): > 100 µM | TGI (HT29 colon): > 100 µM | GI50 (A549 NSCLC): > 100 µM | TGI (A549 NSCLC): > 100 µM | GI50 (DU-145 prostate): > 100 µM | TGI (DU-145 prostate): > 100 µM
